Calls of active or inactive are those of the source. No cut-off for these calls is given here.
Key:
P2X purinoceptor 7 [1] = molecular target: T1, P2X purinoceptor 7 (Homo sapiens, UniProt Q99572); experiment: Antagonist activity at human recombinant P2X7 receptor; type: functional
T1 sequence (Q99572 whole entry): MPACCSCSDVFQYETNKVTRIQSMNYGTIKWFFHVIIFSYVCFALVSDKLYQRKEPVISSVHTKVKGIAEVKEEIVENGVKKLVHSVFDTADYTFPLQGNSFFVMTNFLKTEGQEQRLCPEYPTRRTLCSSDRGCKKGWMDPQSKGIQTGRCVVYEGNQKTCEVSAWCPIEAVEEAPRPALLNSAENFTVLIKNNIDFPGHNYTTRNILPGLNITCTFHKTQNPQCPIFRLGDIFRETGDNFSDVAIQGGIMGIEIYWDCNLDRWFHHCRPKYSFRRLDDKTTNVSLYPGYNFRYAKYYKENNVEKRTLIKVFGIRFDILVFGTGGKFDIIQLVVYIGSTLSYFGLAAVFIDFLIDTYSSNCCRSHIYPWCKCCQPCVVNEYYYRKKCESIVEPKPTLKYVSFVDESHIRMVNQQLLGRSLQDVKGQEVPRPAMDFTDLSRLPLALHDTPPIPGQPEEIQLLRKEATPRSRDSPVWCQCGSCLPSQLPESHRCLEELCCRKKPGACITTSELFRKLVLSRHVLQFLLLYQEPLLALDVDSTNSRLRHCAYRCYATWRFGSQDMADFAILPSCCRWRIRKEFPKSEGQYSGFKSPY

P2X purinoceptor 7 [2] = molecular target: T2, P2X purinoceptor 7 (Rattus norvegicus, UniProt Q64663); experiment: Antagonist activity at rat recombinant P2X7 receptor; type: functional
T2 sequence (Q64663 whole entry): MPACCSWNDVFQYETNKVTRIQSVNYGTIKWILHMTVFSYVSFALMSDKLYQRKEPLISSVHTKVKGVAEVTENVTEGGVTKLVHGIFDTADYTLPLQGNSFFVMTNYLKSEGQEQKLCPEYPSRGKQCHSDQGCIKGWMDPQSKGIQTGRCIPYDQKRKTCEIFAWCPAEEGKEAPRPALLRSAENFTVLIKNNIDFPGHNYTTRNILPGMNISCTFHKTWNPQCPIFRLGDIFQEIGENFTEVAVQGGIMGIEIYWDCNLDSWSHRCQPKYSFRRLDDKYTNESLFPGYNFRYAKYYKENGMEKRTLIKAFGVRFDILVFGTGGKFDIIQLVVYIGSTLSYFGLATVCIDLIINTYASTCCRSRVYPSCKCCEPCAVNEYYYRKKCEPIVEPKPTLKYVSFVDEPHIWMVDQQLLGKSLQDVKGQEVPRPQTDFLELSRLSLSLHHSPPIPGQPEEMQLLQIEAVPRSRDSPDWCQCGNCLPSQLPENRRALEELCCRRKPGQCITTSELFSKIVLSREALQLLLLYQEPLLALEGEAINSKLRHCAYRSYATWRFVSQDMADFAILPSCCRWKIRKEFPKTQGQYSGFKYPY

THP-1 = experiment: Inhibition of IL1-beta release from THP1 cells; type: functional, cell-based; conditions: Homo sapiens
[3] = Clearance in rat at 5 umol/kg, iv; type: ADME, organism-based; conditions: in vivo
[4] = molecular target: P2Y purinoceptor 2 (Homo sapiens) (UniProt P41231); experiment: Activity at human P2Y2 receptor at 10 uM
P2Y purinoceptor 2 (Homo sapiens), sequence (P41231 whole entry): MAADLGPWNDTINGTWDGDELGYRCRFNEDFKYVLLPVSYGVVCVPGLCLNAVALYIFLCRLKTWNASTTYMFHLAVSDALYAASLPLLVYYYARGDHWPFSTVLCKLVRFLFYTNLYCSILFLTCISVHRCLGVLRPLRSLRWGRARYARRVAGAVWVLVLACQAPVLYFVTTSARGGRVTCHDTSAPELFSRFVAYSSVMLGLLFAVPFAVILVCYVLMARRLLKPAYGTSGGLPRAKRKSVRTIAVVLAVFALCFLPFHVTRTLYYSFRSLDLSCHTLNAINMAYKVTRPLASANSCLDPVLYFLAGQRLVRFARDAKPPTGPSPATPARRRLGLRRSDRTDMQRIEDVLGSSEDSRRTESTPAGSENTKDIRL

Homo sapiens = organism: Homo sapiens; experiment: Activity at human P2X2/3 receptor at 10 uM
[5] = Cmax in rat at 5 umol/kg, ip; type: ADME, organism-based; parameters: dose 5 umol/kg, route intraperitoneal; conditions: in vivo
[6] = Tmax in rat at 5 umol/kg, ip; type: ADME, organism-based; conditions: in vivo
[7] = molecular target: T3, P2X purinoceptor 1 (Homo sapiens) (UniProt P51575); experiment: Activity at human P2X1 receptor at 10 uM
T3 sequence (whole entry): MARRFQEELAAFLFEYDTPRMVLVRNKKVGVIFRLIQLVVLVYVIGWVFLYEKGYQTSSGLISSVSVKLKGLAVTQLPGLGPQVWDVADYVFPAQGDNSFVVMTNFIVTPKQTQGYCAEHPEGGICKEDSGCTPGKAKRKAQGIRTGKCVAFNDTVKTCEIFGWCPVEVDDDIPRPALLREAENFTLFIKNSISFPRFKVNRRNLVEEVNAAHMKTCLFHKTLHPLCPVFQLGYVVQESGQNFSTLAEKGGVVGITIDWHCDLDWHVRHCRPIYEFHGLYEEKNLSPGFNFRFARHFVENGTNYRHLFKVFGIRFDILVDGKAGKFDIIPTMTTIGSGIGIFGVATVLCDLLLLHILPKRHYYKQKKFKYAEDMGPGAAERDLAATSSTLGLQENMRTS

[8] = molecular target: T4, P2X purinoceptor 4 (Homo sapiens) (UniProt Q99571); experiment: Activity at human P2X4 receptor at 10 uM
T4 sequence (whole entry): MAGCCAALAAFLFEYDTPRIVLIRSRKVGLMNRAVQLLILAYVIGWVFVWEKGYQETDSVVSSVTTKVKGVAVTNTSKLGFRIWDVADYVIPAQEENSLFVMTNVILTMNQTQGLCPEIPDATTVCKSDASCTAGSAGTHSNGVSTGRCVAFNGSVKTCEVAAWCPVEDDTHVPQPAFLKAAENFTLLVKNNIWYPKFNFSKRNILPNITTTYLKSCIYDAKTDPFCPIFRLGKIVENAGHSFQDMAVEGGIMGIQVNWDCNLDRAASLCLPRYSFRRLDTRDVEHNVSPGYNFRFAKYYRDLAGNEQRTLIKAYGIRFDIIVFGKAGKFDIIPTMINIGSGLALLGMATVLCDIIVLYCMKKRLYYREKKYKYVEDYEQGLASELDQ

[9] = molecular target: T5, P2X purinoceptor 2 (Homo sapiens) (UniProt Q9UBL9); experiment: Antagonist activity at human P2X2 receptor at 10 uM; type: functional
T5 sequence (whole entry): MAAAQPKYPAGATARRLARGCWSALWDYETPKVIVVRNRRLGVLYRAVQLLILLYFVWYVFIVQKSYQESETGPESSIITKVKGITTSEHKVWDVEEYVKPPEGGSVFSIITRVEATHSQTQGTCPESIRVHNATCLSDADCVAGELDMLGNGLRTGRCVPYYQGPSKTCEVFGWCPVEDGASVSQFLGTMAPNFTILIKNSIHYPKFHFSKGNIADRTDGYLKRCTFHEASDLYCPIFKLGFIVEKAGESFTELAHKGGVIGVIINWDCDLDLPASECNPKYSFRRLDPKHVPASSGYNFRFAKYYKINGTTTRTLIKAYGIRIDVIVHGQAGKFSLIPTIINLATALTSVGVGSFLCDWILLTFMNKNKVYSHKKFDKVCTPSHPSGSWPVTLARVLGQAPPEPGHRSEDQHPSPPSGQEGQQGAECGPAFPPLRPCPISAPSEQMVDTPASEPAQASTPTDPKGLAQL

[10] = Half life in ip dosed rat Chung model of neuropathic pain; type: ADME, organism-based; conditions: in vivo
[11] = molecular target: P2Y purinoceptor 1 (Homo sapiens) (UniProt P47900); experiment: Activity at human P2Y1 receptor at 10 uM
P2Y purinoceptor 1 (Homo sapiens), sequence (P47900 whole entry): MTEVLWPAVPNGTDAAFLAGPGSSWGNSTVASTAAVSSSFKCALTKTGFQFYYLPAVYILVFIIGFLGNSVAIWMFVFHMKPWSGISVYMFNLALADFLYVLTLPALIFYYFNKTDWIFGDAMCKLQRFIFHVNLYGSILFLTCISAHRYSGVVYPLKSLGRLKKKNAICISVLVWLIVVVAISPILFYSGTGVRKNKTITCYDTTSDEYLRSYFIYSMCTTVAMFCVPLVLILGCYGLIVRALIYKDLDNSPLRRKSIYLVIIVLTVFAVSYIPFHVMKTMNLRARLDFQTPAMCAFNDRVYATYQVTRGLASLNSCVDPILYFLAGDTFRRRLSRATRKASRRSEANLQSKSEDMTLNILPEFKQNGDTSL

[12] = Volume of distribution at terminal phase in rat at 5 umol/kg, iv; type: ADME, organism-based; conditions: in vivo
Rattus norvegicus = organism: Rattus norvegicus; experiment: Antinociceptive activity in rat Chung model of neuropathic pain assessed as reversal of allodynia after 30 mins; type: functional
[13] = Oral bioavailability in rat at 5 umol/kg; type: ADME, organism-based; conditions: in vivo
[14] = molecular target: Translocator protein (Homo sapiens) (UniProt P30536); experiment: Activity at peripheral benzodiazepine receptor at 10 uM
Translocator protein (Homo sapiens), sequence (P30536 whole entry): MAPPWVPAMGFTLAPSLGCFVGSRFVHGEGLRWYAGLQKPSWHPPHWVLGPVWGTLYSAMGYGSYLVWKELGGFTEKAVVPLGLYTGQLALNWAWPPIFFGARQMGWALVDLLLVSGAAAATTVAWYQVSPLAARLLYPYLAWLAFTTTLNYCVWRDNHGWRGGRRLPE

[15] = Bioavailability in ip dosed rat Chung model of neuropathic pain; type: ADME, organism-based; conditions: in vivo

Structure (SMILES)	IC50 (P2X purinoceptor 7 [1]) [nM]	other results
COc1cccc(Cn2cnnc2-c2cccc(Cl)c2Cl)c1OC	132	–
Clc1cccc(-c2nncn2[C@@H]2CCc3ccccc32)c1Cl	19.1	IC50 (P2X purinoceptor 7 [2]): 77.6 nM; IC50 (THP-1): 75.9 nM
CSc1ccccc1Cn1cnnc1-c1cccc(C(F)(F)F)c1Cl	26.9	–
CC(C)(c1ccccc1)n1cnnc1-c1cccc(Cl)c1Cl	13200	–
Clc1cccc(-c2nncn2Cc2ccccc2)c1Cl	525	–
Clc1cccc(-n2ncnc2Cc2ccccc2)c1Cl	209	–
Clc1cccc(Cn2cnnc2-c2cccc(Cl)c2Cl)c1Cl	191	–
Clc1cccc(-c2nnnn2Cc2ccccc2)c1Cl	–	IC50 (P2X purinoceptor 7 [2]): 75.9 nM; IC50 (THP-1): 2510 nM
Cc1ccccc1Cn1cnnc1-c1cccc(Cl)c1Cl	77.6	clearance [3]: 51.7 mL/min/kg; IC50 (P2X purinoceptor 7 [2]): 209 nM; Activity [4]: inactive; Activity (Homo sapiens): inactive; Cmax [5]: 210 ng/mL; Tmax [6]: 0.33 h; Activity [7]: inactive; Activity [8]: inactive; Activity [9]: inactive; half-life [10]: 1.7 h; Activity [11]: inactive; Vd [12]: 1.9 L/kg; Efficacy (Rattus norvegicus): 68%; ED50 (Rattus norvegicus; Rattus norvegicus, 0.5 h): 125 µmol/kg; IC50 (THP-1): 372 nM; bioavailability [13]: 15%; Activity [14]: 86%; bioavailability [15]: 62%
Clc1cccc(-c2cncn2Cc2ccccc2)c1Cl	1820	–
Clc1cccc(-c2cnnn2Cc2ccccc2)c1Cl	603	–
Clc1cccc(-c2ncnn2Cc2ccccc2)c1Cl	302	–
Fc1ccc(C(F)(F)F)c(Cn2cnnc2-c2cccc(Cl)c2Cl)c1	49	–
Clc1cccc(-c2nncn2Cc2cccc3ccccc23)c1Cl	58.9	–
O=C(NCC12CC3CC(CC(C3)C1)C2)c1cccc(Cl)c1Cl	64.6	IC50 (P2X purinoceptor 7 [2]): 813 nM
CS(=O)(=O)c1ccccc1Cn1cnnc1-c1cccc(C(F)(F)F)c1Cl	145	–

Structure (SMILES)	IC50 (P2X purinoceptor 7 [1]) [nM]	other results
Cc1ccc(F)cc1Cn1cnnc1-c1cccc(Cl)c1Cl	47.9	IC50 (P2X purinoceptor 7 [2]): 550 nM; IC50 (THP-1): 240 nM
COc1cccc(Cn2cnnc2-c2cccc(Cl)c2Cl)c1	214	–
CSc1ccccc1Cn1cnnc1-c1cccc(Cl)c1Cl	49	–
Clc1cccc(-c2ccnn2Cc2ccccc2)c1Cl	6030	–
CC(c1ccccc1)n1cnnc1-c1cccc(Cl)c1Cl (stereo not given)	1050	–
FC(F)(F)c1ccccc1Cn1cnnc1-c1cccc(Cl)c1Cl	132	–
Clc1ccc(Cn2cnnc2-c2cccc(Cl)c2Cl)c(Cl)c1	331	–
Clc1cccc(-c2nncn2[C@H]2CCc3ccccc32)c1Cl	50.1	–
FC(F)(F)c1cccc(Cn2cnnc2-c2cccc(Cl)c2Cl)c1	1290	–
FC(F)c1ccccc1Cn1cnnc1-c1cccc(Cl)c1Cl	117	–
COc1ccccc1Cn1cnnc1-c1cccc(Cl)c1Cl	191	–
FC(F)(F)c1ccc(Cn2cnnc2-c2cccc(Cl)c2Cl)cc1	8910	–
Clc1ccc(Cl)c(Cn2cnnc2-c2cccc(Cl)c2Cl)c1	138	–
Fc1ccc(C(F)(F)F)cc1Cn1cnnc1-c1cccc(Cl)c1Cl	912	–
Clc1cccc(-n2nncc2Cc2ccccc2)c1Cl	427	–

Source: ChEMBL document CHEMBL1139969, “Novel and potent 3-(2,3-dichlorophenyl)-4-(benzyl)-4H-1,2,4-triazole P2X7 antagonists” (Bioorg Med Chem Lett, 2007)
